Tested on: MV-4-11 cells
Assay: Gene expression microarray analysis (Affymetrix PrimeView) and GSEA
Type: cell-based, human
Parameters: RFU PODN (11730768_x_at) / Fold change /veh PODN (11730768_x_at) / RFU LINC00158 (11744669_a_at) / Fold change /veh LINC00158 (11744669_a_at) / RFU DUSP10 (11751237_a_at) / Fold change /veh DUSP10 (11751237_a_at) / RFU ID3 (11757404_x_at) / Fold change /veh ID3 (11757404_x_at) / RFU PLEKHG5 (11737974_s_at) / Fold change /veh PLEKHG5 (11737974_s_at) / RFU LRRC4B (11730491_at) / Fold change /veh LRRC4B (11730491_at) / RFU GIMAP4 (11747438_a_at) / Fold change /veh GIMAP4 (11747438_a_at) / RFU KRT8 (11758183_x_at) / Fold change /veh KRT8 (11758183_x_at) / RFU CNN1 (11734310_a_at) / Fold change /veh CNN1 (11734310_a_at) / RFU VPS37D (11726825_at) / Fold change /veh VPS37D (11726825_at) / RFU C10orf10 (11716522_x_at) / Fold change /veh C10orf10 (11716522_x_at) / RFU KIR2DL2 /// KIR2DL4 /// KIR2DL5A /// KIR2DL5B /// KIR2DS1 /// KIR2DS2 /// KIR2DS3 /// KIR2DS4 /// KIR3DL3 /// KIR3DL3 /// KIR3DS1 (11738374_at) / Fold change /veh KIR2DL2 /// KIR2DL4 /// KIR2DL5A /// KIR2DL5B /// KIR2DS1 /// KIR2DS2 /// KIR2DS3 /// KIR2DS4 /// KIR3DL3 /// KIR3DL3 /// KIR3DS1 (11738374_at) / RFU C1QL1 (11718748_at) / Fold change /veh C1QL1 (11718748_at) / RFU TMPRSS4 (11747572_a_at) / Fold change /veh TMPRSS4 (11747572_a_at) / RFU HAMP (11756126_x_at) / Fold change /veh HAMP (11756126_x_at) / RFU RNFT2 (11725882_a_at) / Fold change /veh RNFT2 (11725882_a_at) / RFU NR4A2 (11747474_a_at) / Fold change /veh NR4A2 (11747474_a_at) / RFU ABCC12 (11746883_a_at) / Fold change /veh ABCC12 (11746883_a_at) / RFU TMEM136 (11760407_x_at) / Fold change /veh TMEM136 (11760407_x_at) / RFU CLDN22 /// WWC2 (11732394_at) / Fold change /veh CLDN22 /// WWC2 (11732394_at) / RFU HLA-DPB1 (11760878_x_at) / Fold change /veh HLA-DPB1 (11760878_x_at) / RFU SPINT1 (11716480_a_at) / Fold change /veh SPINT1 (11716480_a_at) / RFU GAP43 (11754022_s_at) / Fold change /veh GAP43 (11754022_s_at) / RFU A4GNT (11735810_at) / Fold change /veh A4GNT (11735810_at) / RFU PRB3 (11715151_x_at) / Fold change /veh PRB3 (11715151_x_at) / RFU TUBB4B (11761932_at) / Fold change /veh TUBB4B (11761932_at) / RFU CAPN14 (11732068_a_at) / Fold change /veh CAPN14 (11732068_a_at) / RFU TMCC2 (11721928_a_at) / Fold change /veh TMCC2 (11721928_a_at) / RFU IRGQ (11745062_a_at) / Fold change /veh IRGQ (11745062_a_at) / RFU FAM174B (11720279_a_at) / Fold change /veh FAM174B (11720279_a_at) / RFU TMPRSS4 (11748680_a_at) / Fold change /veh TMPRSS4 (11748680_a_at) / RFU FAM212B (11763350_a_at) / Fold change /veh FAM212B (11763350_a_at) / RFU PLEKHG5 (11743358_a_at) / Fold change /veh PLEKHG5 (11743358_a_at) / RFU ZSCAN30 (11745921_a_at) / Fold change /veh ZSCAN30 (11745921_a_at) / RFU CMKLR1 (11741424_a_at) / Fold change /veh CMKLR1 (11741424_a_at) / RFU LOC101060620 /// MAPK8IP1 (11723275_at) / Fold change /veh LOC101060620 /// MAPK8IP1 (11723275_at) / RFU SPTSSB (11747773_x_at) / Fold change /veh SPTSSB (11747773_x_at) / RFU PRSS12 (11739890_at) / Fold change /veh PRSS12 (11739890_at) / RFU BIN1 (11741810_x_at) / Fold change /veh BIN1 (11741810_x_at) / RFU WNT11 (11732464_a_at) / Fold change /veh WNT11 (11732464_a_at) / RFU C10orf10 (11716521_a_at) / Fold change /veh C10orf10 (11716521_a_at) / RFU C5orf56 (11738089_at) / Fold change /veh C5orf56 (11738089_at) / RFU CYB561 (11721691_x_at) / Fold change /veh CYB561 (11721691_x_at) / RFU ANKRD19P (11752326_a_at) / Fold change /veh ANKRD19P (11752326_a_at) / RFU OR2T12 /// OR2T33 /// OR2T8 (11738714_s_at) / Fold change /veh OR2T12 /// OR2T33 /// OR2T8 (11738714_s_at) / RFU VCAN (11748164_a_at) / Fold change /veh VCAN (11748164_a_at) / RFU JSRP1 (11732532_at) / Fold change /veh JSRP1 (11732532_at) / RFU KRTAP10-11 (11738290_x_at) / Fold change /veh KRTAP10-11 (11738290_x_at) / RFU MYO3A (11730013_a_at) / Fold change /veh MYO3A (11730013_a_at) / RFU EBF3 (11725865_a_at) / Fold change /veh EBF3 (11725865_a_at) / RFU CAMK2N1 (11719241_x_at) / Fold change /veh CAMK2N1 (11719241_x_at) / RFU C5orf56 (11738088_a_at) / Fold change /veh C5orf56 (11738088_a_at) / RFU OLFML3 (11715873_a_at) / Fold change /veh OLFML3 (11715873_a_at) / RFU LOC100653217 /// NTM (11731650_a_at) / Fold change /veh LOC100653217 /// NTM (11731650_a_at) / RFU MAPK11 (11762145_a_at) / Fold change /veh MAPK11 (11762145_a_at) / RFU FIZ1 (11724087_x_at) / Fold change /veh FIZ1 (11724087_x_at) / RFU OASL (11726364_x_at) / Fold change /veh OASL (11726364_x_at) / RFU SOX15 (11748057_x_at) / Fold change /veh SOX15 (11748057_x_at) / RFU CD79A (11719716_a_at) / Fold change /veh CD79A (11719716_a_at) / RFU HIST1H1D (11736915_at) / Fold change /veh HIST1H1D (11736915_at) / RFU CASKIN2 (11723855_a_at) / Fold change /veh CASKIN2 (11723855_a_at) / RFU LOC730098 (11760151_x_at) / Fold change /veh LOC730098 (11760151_x_at) / RFU OR4N2 (11742367_at) / Fold change /veh OR4N2 (11742367_at) / RFU PRRT2 (11749266_a_at) / Fold change /veh PRRT2 (11749266_a_at) / RFU SNX32 (11753110_a_at) / Fold change /veh SNX32 (11753110_a_at) / RFU CDHR5 (11726645_a_at) / Fold change /veh CDHR5 (11726645_a_at) / RFU RCAN1 (11760418_a_at) / Fold change /veh RCAN1 (11760418_a_at) / RFU FAM167A (11723789_a_at) / Fold change /veh FAM167A (11723789_a_at) / RFU FAM26E (11764081_at) / Fold change /veh FAM26E (11764081_at) / RFU ISYNA1 (11749810_s_at) / Fold change /veh ISYNA1 (11749810_s_at) / RFU ACY1 (11761880_at) / Fold change /veh ACY1 (11761880_at) / RFU 11764098_at / Fold change /veh 11764098_at / RFU SAMD14 (11745864_x_at) / Fold change /veh SAMD14 (11745864_x_at) / RFU NPB (11741838_a_at) / Fold change /veh NPB (11741838_a_at) / RFU TMPRSS6 (11731388_a_at) / Fold change /veh TMPRSS6 (11731388_a_at) / RFU KRTAP10-2 (11738614_at) / Fold change /veh KRTAP10-2 (11738614_at) / RFU ARHGAP8 /// PRR5-ARHGAP8 (11727945_x_at) / Fold change /veh ARHGAP8 /// PRR5-ARHGAP8 (11727945_x_at) / RFU KRTAP5-7 /// NADSYN1 (11734609_at) / Fold change /veh KRTAP5-7 /// NADSYN1 (11734609_at) / RFU RASL12 (11751679_a_at) / Fold change /veh RASL12 (11751679_a_at) / RFU CDKN2B (11736163_a_at) / Fold change /veh CDKN2B (11736163_a_at) / RFU PRF1 (11729649_at) / Fold change /veh PRF1 (11729649_at) / RFU, ZNF638 /// ZNF638-IT1 / Fold change vs veh, ZNF638 /// ZNF638-IT1 / RFU, PANK3 / Fold change vs veh, PANK3 / RFU, SH3YL1 / Fold change vs veh, SH3YL1 / RFU, ZEB2 / Fold change vs veh, ZEB2 / RFU, NRIP1 / Fold change vs veh, NRIP1 / RFU, PTTG1IP / Fold change vs veh, PTTG1IP / RFU, CAPN2 / Fold change vs veh, CAPN2 / RFU, MED14 / Fold change vs veh, MED14 / RFU, SNORA58 / Fold change vs veh, SNORA58 / RFU, C1orf63 / Fold change vs veh, C1orf63 / RFU, LRRFIP1 / Fold change vs veh, LRRFIP1 / RFU, NDUFAF7 / Fold change vs veh, NDUFAF7 / RFU, SLC12A2 / Fold change vs veh, SLC12A2 / RFU, IBTK / Fold change vs veh, IBTK / RFU, ESF1 / Fold change vs veh, ESF1 / Fold change vs veh, TMEM50B / RFU, TAOK1 / Fold change vs veh, TAOK1 / RFU, ACBD3 / Fold change vs veh, ACBD3 / RFU, TMA16 / Fold change vs veh, TMA16 / RFU, RWDD3 / Fold change vs veh, RWDD3 / RFU, BCAT1 / Fold change vs veh, BCAT1 / RFU, EDEM3 / Fold change vs veh, EDEM3 / RFU, TMEM33 / Fold change vs veh, TMEM33 / RFU, WDR75 / Fold change vs veh, WDR75 / RFU, AHCTF1 / Fold change vs veh, AHCTF1 / RFU, TFRC / Fold change vs veh, TFRC / RFU, ZDHHC17 / Fold change vs veh, ZDHHC17 / RFU, NOM1 / Fold change vs veh, NOM1 / RFU, ARL8B / Fold change vs veh, ARL8B / RFU, ZBTB11 / Fold change vs veh, ZBTB11 / RFU, TAMM41 / Fold change vs veh, TAMM41 / RFU, KIAA1704 /// LOC100996395 / Fold change vs veh, KIAA1704 /// LOC100996395 / RFU, ING1 / Fold change vs veh, ING1 / RFU, TRMT61B / Fold change vs veh, TRMT61B / RFU, FUBP3 / Fold change vs veh, FUBP3 / RFU, TP53 / Fold change vs veh, TP53 / RFU, TNKS2 / Fold change vs veh, TNKS2 / RFU, ZFP14 / Fold change vs veh, ZFP14 / RFU, ACTR2 / Fold change vs veh, ACTR2 / RFU, PPP3R1 / Fold change vs veh, PPP3R1 / RFU, PIK3R1 / Fold change vs veh, PIK3R1 / RFU, HNRNPA1 / Fold change vs veh, HNRNPA1 / RFU, RNF170 / Fold change vs veh, RNF170 / RFU, ZNF28 / Fold change vs veh, ZNF28 / RFU, RNGTT / Fold change vs veh, RNGTT / RFU, OGT / Fold change vs veh, OGT / RFU, BRD1 / Fold change vs veh, BRD1 / RFU, MARS / Fold change vs veh, MARS / RFU, ZNF655 / Fold change vs veh, ZNF655 / RFU, FAHD1 / Fold change vs veh, FAHD1 / RFU, BDP1 / Fold change vs veh, BDP1 / RFU, LRRCC1 / Fold change vs veh, LRRCC1 / RFU, ARID1A / Fold change vs veh, ARID1A / RFU, ZNF146 / Fold change vs veh, ZNF146 / RFU, ZNF330 / Fold change vs veh, ZNF330 / RFU, GPN3 / Fold change vs veh, GPN3 / RFU, C9orf123 / Fold change vs veh, C9orf123 / RFU, N4BP2L2 / Fold change vs veh, N4BP2L2 / RFU, ARFIP1 / Fold change vs veh, ARFIP1 / RFU, FAM179B / Fold change vs veh, FAM179B / RFU, BCL10 / Fold change vs veh, BCL10 / RFU, UHRF1BP1L / Fold change vs veh, UHRF1BP1L / RFU, BET1 / Fold change vs veh, BET1 / RFU, CNOT2 / Fold change vs veh, CNOT2 / RFU, ZNF268 / Fold change vs veh, ZNF268 / Fold change vs veh, ZNF507 / RFU, DGCR2 / Fold change vs veh, DGCR2 / RFU, WDSUB1 / Fold change vs veh, WDSUB1 / Fold change vs veh, HSP90B1 /// MIR3652 / RFU, ADSS / Fold change vs veh, ADSS / RFU, GK / Fold change vs veh, GK / RFU, ZNF148 / Fold change vs veh, ZNF148 / RFU, TAF9 / Fold change vs veh, TAF9 / RFU, SLC1A5 / Fold change vs veh, SLC1A5 / RFU, SLMO2 / Fold change vs veh, SLMO2 / RFU, ABCC4 / Fold change vs veh, ABCC4 / RFU, LOC101060439 /// RAP1B / Fold change vs veh, LOC101060439 /// RAP1B / RFU, RFX7 / Fold change vs veh, RFX7 / RFU, GTPBP10 / Fold change vs veh, GTPBP10 / RFU, CNEP1R1 / Fold change vs veh, CNEP1R1 / RFU, BIVM-ERCC5 /// ERCC5 / Fold change vs veh, BIVM-ERCC5 /// ERCC5 / RFU, ILF3 / Fold change vs veh, ILF3 / RFU 11762660_at / Fold change /veh 11762660_at / RFU VCAN (11757783_s_at) / Fold change /veh VCAN (11757783_s_at) / RFU DDX43 (11728927_at) / Fold change /veh DDX43 (11728927_at) / RFU KRT8 (11758188_x_at) / Fold change /veh KRT8 (11758188_x_at) / RFU NKD1 (11759106_at) / Fold change /veh NKD1 (11759106_at) / RFU SRD5A1 (11742802_a_at) / Fold change /veh SRD5A1 (11742802_a_at) / RFU TPSAB1 /// TPSB2 (11721975_s_at) / Fold change /veh TPSAB1 /// TPSB2 (11721975_s_at) / RFU GSTM3 (11746129_a_at) / Fold change /veh GSTM3 (11746129_a_at) / RFU IL23R (11737362_x_at) / Fold change /veh IL23R (11737362_x_at) / RFU TMEM51 (11727254_a_at) / Fold change /veh TMEM51 (11727254_a_at) / RFU PIWIL2 (11732686_x_at) / Fold change /veh PIWIL2 (11732686_x_at) / RFU ORM1 (11744905_x_at) / Fold change /veh ORM1 (11744905_x_at) / RFU CCDC152 (11743942_at) / Fold change /veh CCDC152 (11743942_at) / RFU ECM1 (11717891_a_at) / Fold change /veh ECM1 (11717891_a_at) / RFU IL23R (11748794_a_at) / Fold change /veh IL23R (11748794_a_at) / RFU TNFAIP8L3 (11732012_x_at) / Fold change /veh TNFAIP8L3 (11732012_x_at) / RFU MBOAT4 (11741988_at) / Fold change /veh MBOAT4 (11741988_at) / RFU 11764193_at / Fold change /veh 11764193_at / RFU TMEM53 (11763286_at) / Fold change /veh TMEM53 (11763286_at) / RFU MAGEB2 (11727129_at) / Fold change /veh MAGEB2 (11727129_at) / RFU TMEM200A (11744735_a_at) / Fold change /veh TMEM200A (11744735_a_at) / RFU CCDC152 (11751479_a_at) / Fold change /veh CCDC152 (11751479_a_at) / RFU FAM211A (11726209_a_at) / Fold change /veh FAM211A (11726209_a_at) / RFU RGS16 (11746705_a_at) / Fold change /veh RGS16 (11746705_a_at) / RFU VCAN (11755009_s_at) / Fold change /veh VCAN (11755009_s_at) / RFU RHOB (11743442_s_at) / Fold change /veh RHOB (11743442_s_at) / RFU RGS16 (11720943_a_at) / Fold change /veh RGS16 (11720943_a_at) / RFU RGS16 (11720944_at) / Fold change /veh RGS16 (11720944_at) / RFU, VPS4B / Fold change vs veh, VPS4B / RFU, CREB1 / Fold change vs veh, CREB1 / RFU, DNAJC13 / Fold change vs veh, DNAJC13 / RFU, GNAQ / Fold change vs veh, GNAQ / RFU, CDK5R1 / Fold change vs veh, CDK5R1 / RFU, ZRANB3 / Fold change vs veh, ZRANB3 / RFU, CUL4A / Fold change vs veh, CUL4A / RFU, CCNY / Fold change vs veh, CCNY / RFU, UFL1 / Fold change vs veh, UFL1 / RFU, COG3 / Fold change vs veh, COG3 / RFU, DIAPH2 / Fold change vs veh, DIAPH2 / RFU, SKA2 / Fold change vs veh, SKA2 / RFU, AFF3 / Fold change vs veh, AFF3 / RFU, LMF1 / Fold change vs veh, LMF1 / RFU, IPO11 / Fold change vs veh, IPO11 / RFU, DFFB / Fold change vs veh, DFFB / RFU, FOXP1 / Fold change vs veh, FOXP1 / RFU, CARD8 / Fold change vs veh, CARD8 / RFU, STRN3 / Fold change vs veh, STRN3 / RFU, ADK / Fold change vs veh, ADK / RFU, RASSF2 / Fold change vs veh, RASSF2 / RFU, WIPF1 / Fold change vs veh, WIPF1 / RFU, LARP1B / Fold change vs veh, LARP1B / RFU, RASA1 / Fold change vs veh, RASA1 / RFU, RB1 / Fold change vs veh, RB1 / RFU, PPFIA1 / Fold change vs veh, PPFIA1 / RFU, MAT2A / Fold change vs veh, MAT2A / RFU, CCT5 / Fold change vs veh, CCT5 / RFU, WDR92 / Fold change vs veh, WDR92 / RFU, CUX1 / Fold change vs veh, CUX1 / RFU, TTC7A / Fold change vs veh, TTC7A / RFU, TMEM135 / Fold change vs veh, TMEM135 / RFU, DEPTOR / Fold change vs veh, DEPTOR / RFU, CPM / Fold change vs veh, CPM / RFU, DNAJB6 / Fold change vs veh, DNAJB6 / RFU, CACNA2D3 / Fold change vs veh, CACNA2D3 / RFU, DTX4 / Fold change vs veh, DTX4 / RFU, TFCP2 / Fold change vs veh, TFCP2 / RFU, GMCL1 /// GMCL1P1 / Fold change vs veh, GMCL1 /// GMCL1P1 / RFU, AEBP2 / Fold change vs veh, AEBP2 / RFU, SNHG1 /// SNORD22 /// SNORD25 /// SNORD26 /// SNORD27 /// SNORD28 /// SNORD29 /// SNORD31 / Fold change vs veh, SNHG1 /// SNORD22 /// SNORD25 /// SNORD26 /// SNORD27 /// SNORD28 /// SNORD29 /// SNORD31 / Fold change (Aza/veh), C12orf56 (ProbeSet 11735607_a_at) / Fold change (ACY-1035/veh), C12orf56 (ProbeSet 11735607_a_at) / Fold change (Aza/veh), FGFR1OP (ProbeSet 11751329_s_at) / Fold change (ACY-1035/veh), FGFR1OP (ProbeSet 11751329_s_at) / Fold change (Aza/veh), VPS36 (ProbeSet 11739960_a_at) / Fold change (ACY-1035/veh), VPS36 (ProbeSet 11739960_a_at) / RFU SYPL1 (11715823_x_at) / Fold change /veh SYPL1 (11715823_x_at) / RFU IGFBP7 (11715501_s_at) / Fold change /veh IGFBP7 (11715501_s_at) / RFU REEP3 (11722064_at) / Fold change /veh REEP3 (11722064_at) / RFU IGLL1 (11728026_x_at) / Fold change /veh IGLL1 (11728026_x_at): dose or concentration left out as unconfirmed
Settings: MV-4-11 cells, 48 hours

Nc1ncn([C@@H]2O[C@H](CO)[C@@H](O)[C@H]2O)c(=O)n1 [azacitidine]
RFU PRRT2 (11749266_a_at): 42.08 RFU
